From the OligoGym collection
HELM strings list units from the 5' end as sugar, base in round brackets, then linkage (d deoxyribose, r ribose, m 2'-O-methyl, p phosphodiester). [sp] = phosphorothioate linkage

Columns and labels:
[1] = target: CTNNB1; assay: HEK293-TLR7, 100 nM ASO, then resiquimod
[2] = target: CTNNB1; assay: HEK293-TLR8, 100 nM ASO, then resiquimod

Substance	TLR7 signal (NF-kB luciferase) (% of resiquimod alone) [1]	TLR8 potentiation (NF-kB luciferase) (fold of resiquimod alone) [2]
RNA1{m(C)[sp].m(G)[sp].m(A)[sp].m(A)[sp].m(U)[sp].d(G)[sp].d(A)[sp].d(A)[sp].d(T)[sp].d(T)[sp].d(A)[sp].d(A)[sp].d(A)[sp].d(A)[sp].d(G)[sp].m(U)[sp].m(U)[sp].m(U)[sp].m(A)[sp].m(A)}$$$$	104	3.01
RNA1{m(C)[sp].m(G)[sp].m(U)[sp].m(G)[sp].m(U)[sp].d(C)[sp].d(T)[sp].d(G)[sp].d(G)[sp].d(A)[sp].d(A)[sp].d(G)[sp].d(C)[sp].d(T)[sp].d(T)[sp].m(C)[sp].m(C)[sp].m(U)[sp].m(U)[sp].m(U)}$$$$	67	2.89
RNA1{m(C)[sp].m(U)[sp].m(C)[sp].m(A)[sp].m(U)[sp].d(T)[sp].d(A)[sp].d(T)[sp].d(A)[sp].d(T)[sp].d(T)[sp].d(T)[sp].d(A)[sp].d(C)[sp].d(T)[sp].m(A)[sp].m(A)[sp].m(A)[sp].m(G)[sp].m(C)}$$$$	93.5	3.46
RNA1{m(C)[sp].m(U)[sp].m(C)[sp].m(U)[sp].m(U)[sp].d(G)[sp].d(A)[sp].d(A)[sp].d(G)[sp].d(C)[sp].d(A)[sp].d(T)[sp].d(C)[sp].d(G)[sp].d(T)[sp].m(A)[sp].m(U)[sp].m(C)[sp].m(A)[sp].m(C)}$$$$	93.4	2.71
RNA1{m(C)[sp].m(U)[sp].m(U)[sp].m(A)[sp].m(U)[sp].d(A)[sp].d(A)[sp].d(T)[sp].d(T)[sp].d(A)[sp].d(T)[sp].d(T)[sp].d(G)[sp].d(C)[sp].d(A)[sp].m(A)[sp].m(G)[sp].m(U)[sp].m(G)[sp].m(A)}$$$$	74.9	2.78
RNA1{m(C)[sp].m(U)[sp].m(U)[sp].m(A)[sp].m(U)[sp].d(T)[sp].d(T)[sp].d(T)[sp].d(A)[sp].d(A)[sp].d(G)[sp].d(C)[sp].d(A)[sp].d(T)[sp].d(A)[sp].m(U)[sp].m(U)[sp].m(A)[sp].m(A)[sp].m(A)}$$$$	123	2.88
RNA1{m(C)[sp].m(U)[sp].m(U)[sp].m(G)[sp].m(G)[sp].d(T)[sp].d(G)[sp].d(T)[sp].d(C)[sp].d(G)[sp].d(G)[sp].d(C)[sp].d(T)[sp].d(G)[sp].d(G)[sp].m(U)[sp].m(C)[sp].m(A)[sp].m(G)[sp].m(A)}$$$$	79.8	2.15
RNA1{m(G)[sp].m(C)[sp].m(C)[sp].m(C)[sp].m(A)[sp].d(T)[sp].d(C)[sp].d(C)[sp].d(A)[sp].d(T)[sp].d(G)[sp].d(A)[sp].d(G)[sp].d(G)[sp].d(T)[sp].m(C)[sp].m(C)[sp].m(U)[sp].m(G)[sp].m(G)}$$$$	31.7	1.46
RNA1{m(G)[sp].m(C)[sp].m(C)[sp].m(G)[sp].m(C)[sp].d(T)[sp].d(T)[sp].d(T)[sp].d(T)[sp].d(C)[sp].d(T)[sp].d(G)[sp].d(T)[sp].d(C)[sp].d(T)[sp].m(G)[sp].m(G)[sp].m(U)[sp].m(U)[sp].m(C)}$$$$	70.5	2
RNA1{m(G)[sp].m(C)[sp].m(G)[sp].m(U)[sp].m(G)[sp].d(T)[sp].d(C)[sp].d(T)[sp].d(G)[sp].d(G)[sp].d(A)[sp].d(A)[sp].d(G)[sp].d(C)[sp].d(T)[sp].m(U)[sp].m(C)[sp].m(C)[sp].m(U)[sp].m(U)}$$$$	40.7	0.91
RNA1{m(G)[sp].m(C)[sp].m(U)[sp].m(U)[sp].m(A)[sp].d(T)[sp].d(T)[sp].d(T)[sp].d(T)[sp].d(A)[sp].d(A)[sp].d(G)[sp].d(C)[sp].d(A)[sp].d(T)[sp].m(A)[sp].m(U)[sp].m(U)[sp].m(A)[sp].m(A)}$$$$	41.1	1.9
RNA1{m(G)[sp].m(G)[sp].m(A)[sp].m(U)[sp].m(C)[sp].d(T)[sp].d(G)[sp].d(C)[sp].d(A)[sp].d(T)[sp].d(G)[sp].d(C)[sp].d(C)[sp].d(C)[sp].d(T)[sp].m(C)[sp].m(A)[sp].m(U)[sp].m(C)[sp].m(U)}$$$$	47.9	1.15
RNA1{m(G)[sp].m(G)[sp].m(C)[sp].m(C)[sp].m(A)[sp].d(T)[sp].d(C)[sp].d(T)[sp].d(C)[sp].d(T)[sp].d(G)[sp].d(C)[sp].d(T)[sp].d(T)[sp].d(C)[sp].m(U)[sp].m(U)[sp].m(G)[sp].m(G)[sp].m(U)}$$$$	35.9	0.82
